IC50 and inhibition data for 26 compounds are collected here from patent publication US8299070B2, “Indole compounds and pharmaceutical use thereof” (Japan Tobacco Inc., priority 2009, dated 2012).

One test has as its target T1, hITK enzyme (FLAG-tagged full-length hITK) (Homo sapiens, UniProt Q08881).
T1 construct: strongly expressing FLAG-tagged full-length hITK in Sf9 cells; FLAG; made in house; host or cells: Sf9 insect cells (ITK); Escherichia coli (GST-SLP76 substrate)
T1 sequence (Q08881 1-620): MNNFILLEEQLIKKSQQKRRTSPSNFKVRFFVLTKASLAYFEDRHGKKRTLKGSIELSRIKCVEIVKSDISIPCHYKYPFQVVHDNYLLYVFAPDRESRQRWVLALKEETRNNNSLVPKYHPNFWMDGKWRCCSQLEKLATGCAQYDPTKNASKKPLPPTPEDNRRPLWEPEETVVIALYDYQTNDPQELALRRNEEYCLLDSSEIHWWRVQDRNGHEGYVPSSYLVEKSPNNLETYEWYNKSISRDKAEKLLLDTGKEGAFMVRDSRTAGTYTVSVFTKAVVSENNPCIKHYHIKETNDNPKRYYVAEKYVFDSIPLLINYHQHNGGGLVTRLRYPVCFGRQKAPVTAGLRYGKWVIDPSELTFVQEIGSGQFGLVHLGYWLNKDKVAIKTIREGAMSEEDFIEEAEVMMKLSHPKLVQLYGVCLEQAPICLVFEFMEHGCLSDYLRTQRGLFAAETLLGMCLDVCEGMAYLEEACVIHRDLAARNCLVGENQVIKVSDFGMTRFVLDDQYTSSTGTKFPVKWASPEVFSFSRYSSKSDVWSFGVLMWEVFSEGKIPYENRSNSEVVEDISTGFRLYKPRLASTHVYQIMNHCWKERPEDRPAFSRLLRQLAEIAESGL
In words: ITK inhibitory activity (HTRF kinase assay, biotinylated GST-SLP76 substrate). Format: biochemical. The note with it: IC50 calculated from the 2 test compound concentrations sandwiching 50% ITK inhibitory rate. The procedure, abridged: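 Sf9-expressed hITK (50 ng/mL enzyme solution) reacted 10 min at RT in MOPS pH 7.0, 10 mmol/L MgCl2, 1 mmol/L DTT with E. coli SLP76 aa95–175 substrate; substrate solution held 100 µmol/L ATP (6 µmol/L for selected compounds). HTRF 665/620 ratio, blank-corrected; IC50 interpolated between two concentrations bracketing 50% inhibition.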
Consider `CN1CCN(CC(=O)N(C)c2ccc3cc(-c4n[nH]c5c4CCC(C)(C)C5)[nH]c3c2)C1=O` [Example 186], for which the IC50 was 1 nM.
On the same count and under the same terms, with `CN(C(=O)CN1CCCCCCC1=O)c1ccc2cc(-c3n[nH]c4c3CCC(C)(C)C4)[nH]c2c1` [Example 187] the figure was 2 nM.
Turning to `CC1CC(=O)N(CC(=O)N(C)c2ccc3cc(-c4n[nH]c5c4CCC(C)(C)C5)[nH]c3c2)C1` (centres unmarked) [Example 188], the IC50 is 1 nM.
The same measure, in the same setting: with `CN(C(=O)CN1CCC(C)(C)CC1=O)c1ccc2cc(-c3n[nH]c4c3CCC(C)(C)C4)[nH]c2c1` [Example 189] the figure was 1 nM.
Same read-out and setting: with `CC[C@@H](C(=O)N(C)c1ccc2cc(-c3n[nH]c4c3CCC(C)(C)C4)[nH]c2c1)N1CCOCC1` [Example 190] the figure was 4 nM; with `CC[C@H](C(=O)N(C)c1ccc2cc(-c3n[nH]c4c3CCC(C)(C)C4)[nH]c2c1)N1CCOCC1` [Example 191], 7 nM; with `CC(=O)N(C)CC(=O)N(C)c1ccc2cc(-c3n[nH]c4c3CCC(C)(C)C4)[nH]c2c1` [Example 192], 2 nM.
For the compound `CN(CC(=O)N(C)c1ccc2cc(-c3n[nH]c4c3CCC(C)(C)C4)[nH]c2c1)C(=O)CC(C)(C)O` [Example 193], the IC50 was 2 nM.
The same measure, in the same setting: with `CO[C@H]1CC[C@@H](C(=O)N(C)CC(=O)N(C)c2ccc3cc(-c4n[nH]c5c4CCC(C)(C)C5)[nH]c3c2)CC1` [Example 194] the figure was 2 nM; with `CC(C(=O)N(C)c1ccc2cc(-c3n[nH]c4c3CCC(C)(C)C4)[nH]c2c1)N(C)C(=O)OC(C)(C)C` (centres unmarked) [Example 195], 20 nM; with `COC[C@H]1CCC(=O)N1CC(=O)N(C)c1ccc2cc(-c3n[nH]c4c3CCC(C)(C)C4)[nH]c2c1` [Example 196], 4 nM.
Turning to `COC[C@@H]1CCC(=O)N1CC(=O)N(C)c1ccc2cc(-c3n[nH]c4c3CCC(C)(C)C4)[nH]c2c1` [Example 197], the IC50 was 2 nM.
Same read-out and setting: next, `COC(=O)N(C)CC(=O)N(C)c1ccc2cc(-c3n[nH]c4c3CCC(C)(C)C4)[nH]c2c1` [Example 198]: 1 nM; `CC(C)C(=O)N(C)CC(=O)N(C)c1ccc2cc(-c3n[nH]c4c3CCC(C)(C)C4)[nH]c2c1` [Example 199]: 2 nM; `CN(CC(=O)N(C)c1ccc2cc(-c3n[nH]c4c3CCC(C)(C)C4)[nH]c2c1)C(=O)C1CC1` [Example 200]: 1 nM.
Still for that read-out and setting: with `CN(C(=O)C1CCOC1(C)C)c1ccc2cc(-c3n[nH]c4c3CCC(C)(C)C4)[nH]c2c1` (centres unmarked) [Example 201] the figure was 10 nM.
Regarding `CC(=O)N(C)[C@@H](C)C(=O)N(C)c1ccc2cc(-c3n[nH]c4c3CCC(C)(C)C4)[nH]c2c1` [Example 202], the half-inhibitory concentration (IC50) was 14 nM.
Still for that read-out and setting: with `CCC(=O)N(C)[C@@H](C)C(=O)N(C)c1ccc2cc(-c3n[nH]c4c3CCC(C)(C)C4)[nH]c2c1` [Example 203] the figure was 12 nM; with `C[C@@H](C(=O)N(C)c1ccc2cc(-c3n[nH]c4c3CCC(C)(C)C4)[nH]c2c1)N(C)C(=O)C1CC1` [Example 205], 27 nM.
Still for that read-out and setting: next, `CCN(C(=O)CO)c1ccc2cc(-c3n[nH]c4c3CCC(C)(C)C4)[nH]c2c1` [Example 206]: 5 nM; `CCN(C(=O)COC)c1ccc2cc(-c3n[nH]c4c3CCC(C)(C)C4)[nH]c2c1` [Example 207]: 4 nM.
For the compound `CC1(C)CCc2c(-c3cc4ccc(N5CCOC5=O)cc4[nH]3)n[nH]c2C1` [Example 208], the IC50 is 29 nM.
Take `CCC(=O)N(CCO)c1ccc2cc(-c3n[nH]c4c3CCC(C)(C)C4)[nH]c2c1` [Example 209]: the IC50 was 4 nM.
As to `CC1(C)CCc2c(-c3cc4ccc(N5CCCC5=O)cc4[nH]3)n[nH]c2C1` [Example 210], the IC50 was 36 nM.
Same read-out and setting: with `CC1(C)CCc2c(-c3cc4ccc(N5CCCCC5=O)cc4[nH]3)n[nH]c2C1` [Example 211] the figure was 33 nM.

The test is the same for the next values; noted with them: at 30 nM test compound; read-out: ITK inhibitory rate (%).
Regarding `CC(C)C(=O)N(C)[C@@H](C)C(=O)N(C)c1ccc2cc(-c3n[nH]c4c3CCC(C)(C)C4)[nH]c2c1` [Example 204], the inhibition at 0.03 µM was 49.2%.
